What was measured:
[1] = biological target: T1, rat adrenergic α1B receptor obtained from Wistar Rat liver (Rattus norvegicus, UniProt P15823); experiment: Adrenergic α1B radioligand binding assay ([3H]Prazosin); conditions: 0.1 μM compound; read-out: Percentage inhibition of ligand binding, Adrenergic α1B
T1 construct: rat adrenergic α1B receptor obtained from Wistar Rat liver; from tissue; host or cells: Wistar rat liver
T1 sequence (P15823 1-515): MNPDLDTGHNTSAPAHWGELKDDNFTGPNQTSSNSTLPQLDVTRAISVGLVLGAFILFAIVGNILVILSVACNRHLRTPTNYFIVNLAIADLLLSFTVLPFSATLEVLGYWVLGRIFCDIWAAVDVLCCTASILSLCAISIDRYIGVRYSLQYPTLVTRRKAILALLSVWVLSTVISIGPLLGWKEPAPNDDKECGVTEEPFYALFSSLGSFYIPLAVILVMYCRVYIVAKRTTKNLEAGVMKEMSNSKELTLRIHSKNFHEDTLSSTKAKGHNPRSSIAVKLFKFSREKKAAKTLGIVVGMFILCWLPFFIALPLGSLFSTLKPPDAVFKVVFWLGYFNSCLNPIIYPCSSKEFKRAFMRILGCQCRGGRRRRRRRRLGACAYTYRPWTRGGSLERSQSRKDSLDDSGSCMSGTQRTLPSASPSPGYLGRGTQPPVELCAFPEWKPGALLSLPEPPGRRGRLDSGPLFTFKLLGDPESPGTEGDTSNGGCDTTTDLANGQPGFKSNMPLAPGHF
Experimental: To evaluate in radioligand binding assays the activity of compounds of the invention, rat adrenergic α1B receptor obtained from Wistar Rat liver (Garcia-S'ainz, J. et al, Biochem. Biophys. Res. Commun. 186:760, 1992; Michel, A. et al, Br. J. Pharmacol. 98:883, 1989) in a modified Tris-HCl buffer (50 mM Tris-HCl buffer, pH 7.4, 0.5 mM EDTA) was used. Compounds of the invention were incubated with 0.25 nM [^3H]Prazosin for 60 min at 25° C. Non-specific binding was estimated in the presence of 10 μM phentolamine. Receptor proteins were filtered and washed, the filters were then counted to determine [^3H]Prazosin specifically bound. Compounds were screened at 1 μM or lower, using 1% DMSO as vehicle. Compounds of the invention were tested in this biochemical assay and percent inhibition of specific binding was determined. Biochemical assay results are presented as the percent inhibition of specific binding in Tables B1A-B1D.

[2] = biological target: T2, human recombinant adrenergic α2A receptor (Homo sapiens, UniProt P08913); experiment: Adrenergic α2A radioligand binding assay ([3H]MK-912); conditions: 0.1 μM compound; read-out: Percentage inhibition of ligand binding, Adrenergic α2A
T2 construct: expressed in transfected cells; host or cells: insect Sf9 cells
T2 sequence (P08913 1-465): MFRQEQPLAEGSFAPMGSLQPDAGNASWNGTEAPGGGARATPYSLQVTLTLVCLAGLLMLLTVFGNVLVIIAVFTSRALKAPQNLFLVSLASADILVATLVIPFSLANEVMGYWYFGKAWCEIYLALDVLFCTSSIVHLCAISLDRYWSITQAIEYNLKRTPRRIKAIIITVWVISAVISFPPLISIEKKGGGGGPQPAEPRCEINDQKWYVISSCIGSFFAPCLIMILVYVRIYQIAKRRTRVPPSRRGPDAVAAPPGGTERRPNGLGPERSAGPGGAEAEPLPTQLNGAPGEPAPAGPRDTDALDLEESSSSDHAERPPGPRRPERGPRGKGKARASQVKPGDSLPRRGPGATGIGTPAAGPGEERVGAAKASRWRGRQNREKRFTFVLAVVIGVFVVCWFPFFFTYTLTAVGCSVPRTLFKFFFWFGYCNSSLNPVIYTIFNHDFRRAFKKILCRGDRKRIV
Experimental: To evaluate in radioligand binding assays the activity of compounds of the invention, human recombinant adrenergic α2A receptor expressed in insect Sf9 cells (Uhlen, S. et al, J. Pharmacol. Exp. Ther. 271:1558, 1994) in a modified Tris-HCl buffer (50 mM Tris-HCl, pH 7.4, 12.5 mM MgCl2, 2 mM EDTA) was used. Compounds of invention were incubated with 1 nM [^3H]MK-912 for 60 min at 25° C. MK912 was (2S-trans)-1,3,4,5′,6,6′,7,12b-octahydro-1′,3′-dimethyl-spiro[2H-benzofuro[2,3-a]quinolizine-2,4′(1′H)-pyrimidin]-2′(3′H)-one hydrochloride Non-specific binding was estimated in the presence of 10 μM WB-4101 (2-(2,6-Dimethoxyphenoxyethyl)aminomethyl-1,4-benzodioxane hydrochloride). Receptor proteins were filtered and washed, the filters were then counted to determine [^3H]MK-912 specifically bound. Compounds were screened at 1 μM or lower, using 1% DMSO as vehicle. Compounds of the invention were tested in this biochemical assay and percent inhibition of specific binding was determined. Biochemical assay results are presented as the percent inhibition of specific binding in Tables B1A-B1D.

[3] = biological target: T3, human recombinant adrenergic α1D receptor (Homo sapiens, UniProt P25100); experiment: Adrenergic α1D radioligand binding assay ([3H]Prazosin); conditions: 0.1 μM compound; read-out: Percentage inhibition of ligand binding, Adrenergic α1D
T3 construct: expressed in transfected cells; host or cells: HEK-293 cells
T3 sequence (P25100 1-572): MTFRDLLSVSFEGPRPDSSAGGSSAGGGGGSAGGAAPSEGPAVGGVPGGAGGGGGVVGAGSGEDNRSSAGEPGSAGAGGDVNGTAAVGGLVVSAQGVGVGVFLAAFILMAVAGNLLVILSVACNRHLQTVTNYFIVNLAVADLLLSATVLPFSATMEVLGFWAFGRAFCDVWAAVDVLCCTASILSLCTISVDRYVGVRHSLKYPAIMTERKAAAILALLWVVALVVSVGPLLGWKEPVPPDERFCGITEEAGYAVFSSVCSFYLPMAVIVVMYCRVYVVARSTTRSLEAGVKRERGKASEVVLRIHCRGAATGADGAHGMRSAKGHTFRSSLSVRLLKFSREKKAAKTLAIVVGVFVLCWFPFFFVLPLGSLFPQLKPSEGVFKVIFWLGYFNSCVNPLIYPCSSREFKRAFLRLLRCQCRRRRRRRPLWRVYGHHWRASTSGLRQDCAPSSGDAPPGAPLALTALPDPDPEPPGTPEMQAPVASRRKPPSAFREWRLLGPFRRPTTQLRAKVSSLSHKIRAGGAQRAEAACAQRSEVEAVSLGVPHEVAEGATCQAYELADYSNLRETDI
Experimental: To evaluate in radioligand binding assays the activity of compounds of the invention, human recombinant adrenergic α1D receptor expressed in human embryonic kidney (HEK-293) cells (Kenny, B. et al, Br. J. Pharmacol. 115(6):981, 1995) in a 50 mM Tris-HCl buffer, pH 7.4, was used. Compounds were incubated with 0.6 nM [3H]Prazosin for 60 min at 25° C. Non-specific binding was estimated in the presence of 10 μM phentolamine. Receptor proteins were filtered and washed, the filters were then counted to determine [3H]Prazosin specifically bound. Compounds were screened at 1 μM or lower, using 1% DMSO as vehicle. Biochemical assay results are presented as the percent inhibition of specific binding in Tables B1A-B1D.

SMILES | inhibition at 0.1 µM [1] | inhibition at 0.1 µM [2] | inhibition at 0.1 µM [3]
Cc1cc(-c2ccncc2)c2c(c1)c1c(n2C)CCN(C)C1 [A9] | -9% | 0% | -1%
Cc1cc(C#Cc2ccncc2)c2c(c1)c1c(n2C)CCN(C)C1 [A17] | 9% | 14% | -5%
Cc1cc(CCc2ccc(C)nc2)c2c(c1)c1c(n2C)CCN(C)C1 [A13] | -9% | -12% | 8%
Cc1cc(/C=C/c2ccc(C)nc2)c2c(c1)c1c(n2C)CCN(C)C1 [A14] | 0% | 12% | -9%
C/C(=C\c1cc(C)cc2c3c(n(C)c12)CCN(C)C3)c1ccc(C)nc1 [A15] | 0% | 20% | 5%
Cc1cc(C#Cc2nccs2)c2[nH]c3c(c2c1)CN(C)CC3 [A16] | 1% | 31% | -2%
Cc1cc(C#Cc2cccs2)c2[nH]c3c(c2c1)CN(C)CC3 [A8] | -3% | 20% | 3%
C/C(=C\c1cc(C)cc2c3c(n(C)c12)CCN(C)C3)c1ccncc1 [A11] | -1% | 4% | -1%
Cc1cc(-c2ccc(F)cc2)c2c(c1)c1c(n2C)CCN(C)C1 [A7] | 2% | 10% | 4%
C#Cc1cc(C)cc2c3c(n(C)c12)CCN(C)C3 [A10] | 11% | 23% | 26%
Cc1ccc(C#Cc2cc(Cl)cc3c4c(n(C)c23)CCN(C)C4)cn1 [A18] | 30% | 6% | 34%
Cc1cc(C#Cc2ccc(C)nc2)c2c(c1)c1c(n2C)CCN(C)C1 [A12] | 2% | -4% | 38%

Further lines, results first:

inhibition at 0.1 µM [1] | inhibition at 0.1 µM [2] | inhibition at 0.1 µM [3] | SMILES
28% | 75% | 28% | Cc1cc2c3c(c1)c1c(n3C(c3ccccc3)C2)CCN(C)C1 (stereo not drawn) [B12]
-3% | -1% | -6% | Cc1ccc2c(c1)c1c3n2C(c2ccccc2)=CCC3(C)CN(C)C1 (stereo not drawn) [D10]
2% | -1% | 15% | Cc1cc2c3c(c1)c1c(n3CC(C)(c3ccc(C)nc3)OC(C)C2)CCN(C)C1 (stereo not drawn) [B160]
10% | 5% | -3% | Cc1ccc2c(c1)c1c3n2C(c2ccccc2)CCC3(C)CN(C)C1 (stereo not drawn) [D12]
0% | 40% | 0% | Cc1cc2c3c(c1)c1c(n3CC(C)(c3ccncc3)OC(C)C2)CCN(C)C1 (stereo not drawn) [B165]
-6% | 14% | -2% | Cc1cc2c3c(c1)c1c(n3C[C@@](C)(c3ccncc3)O[C@H]2C)CCN(C)C1 [B162]
6% | 5% | 15% | Cc1cc2c3c(c1)c1c(n3C[C@](C)(c3ccncc3)O[C@H]2C)CCN(C)C1 [B163]
16% | 8% | -5% | Cc1ccc2c(c1)c1c3n2CC(c2ccncc2)=CCC3(C)CN(C)C1 (stereo not drawn) [D11]

— US20140303144A1, “COMPOUNDS AND METHODS OF TREATING HYPERTENSION” (Medivation Technologies, Inc., priority 2011, published 2014)
